Measurements reported in patent US6673376B1, “Method of preparing a solution, in particular a dialysis or infusion solution” (Fresenius Medical Care Deutschland GmbH, priority 1998, dated 2004).
Where “and” joins values, the source holds several entries; their conditions need not be identical. Equal entries are not always repeated. Where two headings read alike, the source gives them in different places.

Legend:
[1] = for pH of finished solution: 1st-3rd test
Source text: This concentrate was then mixed with a 1 molar sodium bi-carbonate solution and diluted with the stated amount of water.

[2] = Dissolving rate (time until solution is clear) of succinic acid and succinic acid-NaHCO3 adduct; type: physicochemical; settings: for Time until solution is clear: three runs
Experimental: This solution is stirred and heated briefly until all the solids have dissolved. Then the solution is dried to constant weight (for approximately 48 hours) at approximately 105° C. in a drying oven. The product, which forms amorphous crystals, is homogenized in a mortar.

[3] = 12.98 g/L, 0.11 mol/l, concentrate 0.22 meq/L
[4] = 19.47 g/L, 0.165 mol/l, concentrate 0.33 meq/L
[5] = 25.96 g/L, 0.22 mol/L, concentrate 0.44 meq/L
[6] = 38.94 g/L, 0.33 mol/L, concentrate 0.66 meq/L
[7] = 58.11 g/L, 0.495 mol/L, concentrate 0.99 meq/L

pH of finished solution ([1]; 35 mL 1 molar NaHCO3, 951 mL water, 14 mL 0.15 molar succinic acid): 7.08 and 7.09 | pH of finished solution ([1]; 35 mL 1 molar NaHCO3, 953 mL water, 12 mL 0.15 molar succinic acid): 7.16 and 7.17 | pH of finished solution ([1]; 35 mL 1 molar NaHCO3, 955 mL water, 10 mL 0.15 molar succinic acid): 7.26 and 7.27 | pH of finished solution ([1]; 35 mL 1 molar NaHCO3, 957 mL water, 8 mL 0.15 molar succinic acid): 7.42 and 7.39 and 7.41 | pH of finished solution ([1]; 40 mL 1 molar NaHCO3, 946 mL water, 14 mL 0.15 molar succinic acid): 7.14 and 7.16 and 7.19 | pH of finished solution ([1]; 40 mL 1 molar NaHCO3, 948 mL water, 12 mL 0.15 molar succinic acid): 7.24 and 7.25 | pH of finished solution ([1]; 40 mL 1 molar NaHCO3, 950 mL water, 10 mL 0.15 molar succinic acid): 7.34 and 7.35 and 7.32 | pH of finished solution ([1]; 40 mL 1 molar NaHCO3, 952 mL water, 8 mL 0.15 molar succinic acid): 7.46 and 7.47 and 7.48 | concentration sufficient to adjust a physiological pH ([1]; in terms of the finished ready-to-use solution, relatively high sodium bicarbonate concentration): 1.5 mmol/L | Time until solution is clear, Average [2, 3]: 210 | Time until solution is clear [2, 3]: 200 and 210 and 220 | Time until solution is clear, Average [2, 4]: 250 | Time until solution is clear [2, 4]: 230 and 250 and 270 | Time until solution is clear, Average [2, 5]: 358 | Time until solution is clear [2, 5]: 400 and 375 and 300 | Time until solution is clear, Average [2, 6]: 460 | Time until solution is clear [2, 6]: 510 and 420 and 450 | Time until solution is clear, Average [2, 7]: >900 | Time until solution is clear [2, 7]: 900 and >1080 and 960 | dissolution rate ([2]; in water, in words): very low
SMILES: O=C(O)CCC(=O)O [succinic acid]
